Test results taken from patent publication US10307418B2, “Azole pharmaceutical formulations for parenteral administration and methods for preparing and using the same as treatment of diseases sensitive to azole compounds” (Platform Brightworks Two, Ltd., priority 2010, dated 2019).
Converted amounts (≈) assume the structure as drawn. Where two headings read alike, the source gives them in different places.

Columns and labels:
[1] = Maximum solubility of ITZA and azole analogues in solvents (HPLC); format: physicochemical; details: for solubility thermodynamic at 1 h: within 1 hour at RT, read-out: Maximum equilibrium solubility
Experimental: ITZA and its analogues were dissolved in various solvents incubated at 37° C. for 30 minutes, cooled down to room temperature, centrifuged at 14,000 rpm for 1 min. The supernatant was analyzed using HPLC to determine the maximum solubility of ITZA and its azole analogues.
In a first step the maximum ITZA solubility in various single solvents was determined. To this end, ITZA and its analogs were dissolved in various solvents, incubated at 37° C. for 30 minutes, cooled down to room temperature, centrifuged at 14,000 rpm for 1 min. The supernatant was analyzed using HPLC to determine the maximum solubility of the respective agent.
The solubility of ITZA was determined in several individual vehicles. Briefly, a known amount of ITZA drug, formulated as a powder (Sigma Inc., St Louis, Mo.), was equilibrated in the respective solvent at RT over 1-4 hours. An aliquot was removed, filtered, and prepared for HPLC to determine maximum solubility at room temperature. Based on the ITZA solubility in each vehicle, different solvents were mixed according to the cosolvency principle in an attempt to arrive at an enhanced stable solubility. […] The stock formulation was then diluted with a final diluent, i.e. NS or D5W or DlOW, to yield a stable use-formulation. The desired range of the final use-formulation was between 1 and 5 mg/mL, as it would result in a final volume that could be safely and conveniently infused intravascularly.
An excess of ITZA as a powder was added to a multitude of chemical solvents (Table 1) at RT. Each mixture was intermittently vortexed, placed in a dark environment and checked visually for up to 4 hours for evidence of solubilization. Following centrifugation to remove solid particles, small samples were withdrawn after consecutive time intervals and the ITZA concentration was determined by HPLC as described.

[2] = Stability of ITZA/POSA in solvent vehicles (HPLC); format: physicochemical
Experimental: The ITZA in solvent H3 was incubated in sealed tubes. […] For both short-term and long-term stability studies, triplicate samples at various time points were analyzed quantitatively by HPLC after appropriate dilutions. In the next step the stability of ITZA (at approximately 4 mg/mL) in a preferred composite solvent at a clinically relevant stock concentration by itself, and after dilution with a similar volume of a clinically acceptable infusion fluid, was determined at room temperature. ITZA was dissolved at a final stock concentration of 2-6 mg/mL in benzyl alcohol with acidified EtOH/PEG-400 (prototype ITZA stock solvent vehicle) and incubated at RT and at 40° C. The resulting ITZA concentrations were measured by HPLC in samples taken immediately after solubilization, then hourly for 8 hours, and then at gradually increasing time intervals for up to several days (weeks), depending on the initial rate of solubilization/degradation in the respective solvent system.

Candida parapsilosis = assay: Yeast susceptibility test, MIC (CLSI standard); format: cell-based; details: tested range 38 μg/mL to 0.03 μg/mL, read out at 24 hours, average of three experiments
Experimental: (§1) Briefly, susceptibility tests were set-up using a standardized methodology (CLSI […] standard). Drugs were diluted into RPMI-Mops medium (Yeast One Broth (Sensititer, product Y3462, Trek Diagnostic Systems, Cleveland, Ohio) Sensititer Lot number 151416SA-expiration date 2011-01). Two different strains of yeast were tested, the standardized evaluation/read out was performed at 24 hours after the start of each culture. The tests were repeated twice and all MIC (minimum inhibitory concentration) values are reported as an average of the three experiments.

[3] = test system: Aspergillus fumigatus (Clinical Lab isolate); assay: Mold susceptibility test, MIC; format: cell-based; details: tested range 75 μg/mL to 0.07 μg/mL, read out at 48 hrs
Experimental: Two hyaline molds were tested with a standard read out at 48 hrs:
Tested drug range: 75 μg/mL to 0.07 μg/mL
as §1

[4] = test system: Zygomycete (Clinical Lab isolate, MDACC); assay: Extended mold testing, MIC (CLSI M38A); format: cell-based; details: H3 final use-formulation, range 75 μg/mL to 0.07 μg/mL, 48 hr, read-out: MIC
Excerpt: To further determine the antifungal activity of the compounds in the new formulation systems we investigated the efficacy of the various agents against additional strains of mucor and Aspergillus (9/-16-9/20/2010) (The Rhizomucor was a clinical isolate from a patient isolate) and the Aspergillus fumigatus (ATCC strain 90906) used was a repeat from the previously described experiment. Again, the susceptibility tests were set-up using the standardized test method (CLSI M38A). The used drugs were provided in the described H3 final use-formulation that has been previously described. All drugs were diluted in RPMI-Mops medium (YeastOne, Sensititer Lot 151416SA, expiration date January 2011).
As before two different molds were tested with a standard read out at 48 hr: • Drug dilution range 75 μg/mL to 0.07 μg/mL. • Aspergillus fumigatus (ATCC strain 90906) Zygomycete (Clinical Lab isolate, MDACC)

[5] = mouse, in vivo, 5 mg/kg
Experimental: (§2) Swiss Webster mice were used for pharmacokinetic studies of ITZA and its analogs. The dilation of the vein was accomplished by warming up the mice using a heat lamp. […] Mice were allowed to recover and blood samples were obtained through cardiac puncture under general anesthesia with Isoflurane/oxygen by vaporizer at various time points. Plasma was obtained by centrifugation of blood sample at 3,200 rpm for 5 min. at 4° C. Plasma proteins were precipitated by adding acetonitrile (twice the volume of plasma). The mixture was vortexed for 30 seconds and centrifuged for 5 min. at 14,000 rpm. The supernatant was saved and was injected into the HPLC to determine the respective drug concentrations.
(§3) Unless specified, the analogous experiments were performed using POSA as an alternative to ITZA; Swiss Webster mice of both sexes with a body weight of 25-30 g were used for the in vivo pharmacology experiments (Harlan-Sprague-Dawley, Houston, Tex.). The animals were allowed a minimum of 7 days after arrival to accommodate to the new environment and allowed free access to commercial feed and tap water prior to and during the experimentation period. The animals were housed in an Association for the Assessment and Accreditation of Laboratory Animal Care International (AAALAC)-approved facility that meets the requirements of the USDA, NIH, and DHHS.
(§4) The ITZA dose of 5 mg/kg BW was determined to be a suitable test dose that could be administered to the mice as a slow (3-4 min) IV bolus injection without requiring sedation, but could be performed with only minimal physical restraint of the animals in a standard funnel-type cage.
(§5) The ITZA was formulated in the H3 solvent system described above as the preferred solvent to a stock concentration of 4-5 mg/mL and then diluted with NS (ratio 1:1) so the intended dose (5.0 mg/kg BW) could be injected in a tail vein in a total volume of approximately 100 μL. […] No sedative premedication was used for the mice in this experiment to avoid the possible induction of microsomal liver enzymes that could modify ITZA metabolism. Thus, the animals were unanesthetized, being only physically restrained during and immediately following the drug injection.
(§6) Blood samples (0.5-1.0 mL) were drawn through cardiac puncture into heparinized tubes at selected time points prior to the drug infusion (“blank”), and from 5 min to 1 hour after drug injection for determination of ITZA concentrations, and for 5 min to about 7 hrs in the POSA experiment. The mice were exposed to 2% -4% isoflurane for general anesthesia. Blood samples were obtained through cardiac puncture and immediately deposited in heparinized microcentrifuge tubes.

in vivo = details: both, Swiss Webster, mouse, plasma, iv, 5 mg/kg
Experimental: as §2, §3, §4, §5, §6

CCC(C)n1ncn(-c2ccc(N3CCN(c4ccc(OCC5COC(Cn6cncn6)(c6ccc(Cl)cc6Cl)O5)cc4)CC3)cc2)c1=O (centres unmarked) [ITZA, itraconazole]
solubility ([1]; 2M citric acid, aqueous buffer, thermodynamic from solid, in 2M citric acid, read-out: Maximum solubility): 3220 µg/mL (≈ 4.56 mM)
solubility ([1]; 6N HCl, aqueous buffer, thermodynamic from solid, in 6N HCl, read-out: Maximum solubility): 7410 µg/mL (≈ 10.5 mM)
solubility ([1]; 25% acetic acid, aqueous with cosolvent or surfactant or cyclodextrin, thermodynamic from solid, in 25% Acetic acid, read-out: Maximum solubility): 300 µg/mL (≈ 0.425 mM)
solubility ([1]; 50% acetic acid, aqueous with cosolvent or surfactant or cyclodextrin, thermodynamic from solid, in 50% Acetic acid, read-out: Maximum solubility): 12900 µg/mL (≈ 18.3 mM)
solubility ([1]; Intralipid, oil or lipid, thermodynamic from solid, in Intralipid, read-out: Maximum solubility): 150 µg/mL (≈ 0.213 mM)
solubility ([1]; PEG 200, organic solvent or mixture, thermodynamic from solid, in PEG 200, read-out: Maximum solubility): 1450 µg/mL (≈ 2.05 mM)
solubility ([1]; PEG 300, organic solvent or mixture, thermodynamic from solid, in PEG 300, read-out: Maximum solubility): 1810 µg/mL (≈ 2.57 mM)
solubility ([1]; PEG 400, organic solvent or mixture, thermodynamic from solid, in PEG 400, read-out: Maximum solubility): 2510 µg/mL (≈ 3.56 mM)
solubility ([1]; acetic acid, organic solvent or mixture, thermodynamic from solid, in Acetic acid, read-out: Maximum solubility): 144000 µg/mL (≈ 205 mM)
solubility ([1]; benzyl alcohol, organic solvent or mixture, thermodynamic from solid, in Benzyl alcohol, read-out: Maximum solubility): > 128000 µg/mL
Solubility (in words) ([1]; diluted acetic acid, H2O, Normal saline, 5% Dextrose, Polyoxyethylated castor oil, Propylene glycol, 2 M citric acid, Ethanol, HCl, PEG400, Intralipid): insignificant solubility
solubility ([1]; ethanol, organic solvent or mixture, thermodynamic from solid, in Ethanol, read-out: Maximum solubility): 410 µg/mL (≈ 0.581 mM)
Maximum solubility ([1]; in 10% Acetic acid): 860 µg/mL
Maximum solubility ([1]; in Polyoxyethylated castor oil): 890 µg/mL
solubility ([1]; normal saline, saline or isotonic, thermodynamic from solid, in Normal saline, read-out: Maximum solubility): 480 µg/mL (≈ 0.68 mM)
solubility ([1]; organic solvent or mixture, thermodynamic from solid, benzyl alcohol containing solvent H3, room temp, read-out: Maximum solubility): ~31400 µg/mL (≈ 44.5 mM)
solubility thermodynamic at 1 h ([1]; organic solvent or mixture, thermodynamic from solid, Benzyl alcohol): > 100000 µg/mL
solubility thermodynamic at 1 h ([1]; organic solvent or mixture, thermodynamic from solid, pure (glacial) acetic acid): > 100000 µg/mL
solubility ([1]; propylene glycol, organic solvent or mixture, thermodynamic from solid, in Propylene glycol, read-out: Maximum solubility): 140 µg/mL (≈ 0.198 mM)
solubility ([1]; solvent B (with Tween 80), aqueous with cosolvent or surfactant or cyclodextrin, thermodynamic from solid, solvent B (with Tween 80), read-out: Maximum solubility): 29000 µg/mL (≈ 41.1 mM)
solubility at 30 min ([1]; solvent H3D (no benzyl alcohol), organic solvent or mixture, thermodynamic from solid, solvent H3D (no benzyl alcohol), single determination, read-out: Azole solubility, [Drug] mg/mL): 19.1 mg/mL (≈ 27.1 mM)
solubility at 30 min ([1]; solvent H3D (no benzyl alcohol), organic solvent or mixture, thermodynamic from solid, solvent H3D (no benzyl alcohol), read-out: Azole solubility, Average mg/mL): 19 mg/mL (≈ 26.9 mM)
Azole solubility, [Drug] mg/mL ([1]; solvent H3D (no benzyl alcohol), single determination): 18.9 mg/mL
solubility at 30 min ([1]; solvent H3G (no benzyl alcohol), organic solvent or mixture, thermodynamic from solid, solvent H3G (no benzyl alcohol), single determination, read-out: Azole solubility, [Drug] mg/mL): 19.2 mg/mL (≈ 27.2 mM)
solubility at 30 min ([1]; solvent H3G (no benzyl alcohol), organic solvent or mixture, thermodynamic from solid, solvent H3G (no benzyl alcohol), read-out: Azole solubility, Average mg/mL): 19.3 mg/mL (≈ 27.4 mM)
Azole solubility, [Drug] mg/mL ([1]; solvent H3G (no benzyl alcohol), single determination): 19.4 mg/mL
solubility ([1]; solvent J1, organic solvent or mixture, thermodynamic from solid, solvent J1, read-out: Solubility): 18100 µg/mL (≈ 25.7 mM)
solubility ([1]; solvent J2): 15990 µg/mL (≈ 22.7 mM)
solubility ([1]; solvent J3): 10110 µg/mL (≈ 14.3 mM)
solubility ([1]; solvent J4, organic solvent or mixture, thermodynamic from solid, solvent J4, read-out: Solubility): 6090 µg/mL (≈ 8.63 mM)
solubility ([1]; solvent J5, organic solvent or mixture, thermodynamic from solid, solvent J5, read-out: Solubility): 3540 µg/mL (≈ 5.02 mM)
solubility ([1]; solvent K, organic solvent or mixture, thermodynamic from solid, solvent K, RT, read-out: Maximum solubility): 11100 µg/mL (≈ 15.7 mM)
Maximum solubility ([1]; solvent L): 5000 µg/mL
Stability (% remaining) ([2]; 2 mg/mL, normal saline as final dilution solution, at least 24 hours at RT): more than 90%
stability of ITZA ([2]; H3D/5% dex., day 3): 108%
stability of ITZA ([2]; H3D/sal., day 4): 102%
stability of ITZA ([2]; H3G/10% dex., day 1): 102%
Stability (%) ([2]; parent solvent H3, approximately 4 mg/mL, room temperature, 48 hrs): 96%
Stability (%) ([2]; parent solvent H3, approximately 4 mg/mL, room temperature, 7 days (1 w)): 91%
Stability (%) ([2]; parent solvent H3, approximately 4 mg/mL, room temperature, 9 days): 84%
Stability (%) ([2]; parent solvent H3, approximately 4 mg/mL, room temperature, 18 days): 80%
Stability (%) ([2]; solvent H3, approximately 4 mg/mL, 40° C., 72 hr): 76%
Stability (%) ([2]; solvent H3, approximately 4 mg/mL, 40° C., 10 days): 59%
Stability (%) ([2]; solvent H3, approximately 4 mg/mL, 40° C., 11 days): 58%
Stability (%) ([2]; solvent H3, approximately 4 mg/mL, 40° C., time 0): 100%
Stability (%) ([2]; solvent H3/normal saline (1:1), approximately 2.0 mg/mL, RT, 6 hrs): 101%
MIC (Candida parapsilosis): 0.03 µg/mL (≈ 4.25e-05 mM)
MIC (Candida parapsilosis; listed as ITZA*): 0.07 µg/mL (≈ 9.92e-05 mM)
MIC ([3]; Aspergillus fumigatus, 48 h, read-out: MIC): 0.6 µg/mL (≈ 0.00085 mM)
MIC [3]: 0.3 µg/mL (≈ 0.000425 mM)
MIC [4]: 2.5 µg/mL (≈ 0.00354 mM)
tolerability of IV injection (in words) [5]: well accepted
half-life (in vivo): ~30 min
